Patent publication US11339171B2, “MDM2 inhibitors” (Gan & Lee Pharmaceuticals, priority 2017, dated 2022)

Experiments:
MDM2 = target: T1, MDM2 (Homo sapiens, UniProt Q00987); test: Inhibition test of MDM2-P53 (GST-MDM2, Biotin-P53, Anti-GST-Tb, SA-XL665); format: binding; settings: for inhibitory effect on MDM2 compared with positive control compound HDM201: labels are Example numbers, the compounds with S-configuration are meant
T1 construct: made in house
How it was run: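 Compounds, serially diluted 5-fold (twelve concentrations), were shaken for 90 min at 25° C with a mix of GST-MDM2 (4 nM final), Biotin-P53, anti-GST-Tb and SA-XL665. Buffer: 1×PBS, 0.1% BSA, 5 mM DTT, 1 mM AEBSF; signal read on a microplate reader.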

[1] = system: human osteosarcoma cell line SJSA-1; test: Inhibition of proliferation of human osteosarcoma cell line SJSA-1 (DAPI staining, In Cell Analyzer); settings: for inhibitory effect on human osteosarcoma cell line SJSA-1 compared with positive control compound HDM201: labels are Example numbers, the compounds with S-configuration are meant; for IC50: Homo sapiens, SJSA-1, 72 h, read-out: IC50 (nM), inhibitory activity on proliferation of human osteosarcoma cell line SJSA-1, SJSA-1, incubated 72 h

T1 sequence (Q00987 whole entry): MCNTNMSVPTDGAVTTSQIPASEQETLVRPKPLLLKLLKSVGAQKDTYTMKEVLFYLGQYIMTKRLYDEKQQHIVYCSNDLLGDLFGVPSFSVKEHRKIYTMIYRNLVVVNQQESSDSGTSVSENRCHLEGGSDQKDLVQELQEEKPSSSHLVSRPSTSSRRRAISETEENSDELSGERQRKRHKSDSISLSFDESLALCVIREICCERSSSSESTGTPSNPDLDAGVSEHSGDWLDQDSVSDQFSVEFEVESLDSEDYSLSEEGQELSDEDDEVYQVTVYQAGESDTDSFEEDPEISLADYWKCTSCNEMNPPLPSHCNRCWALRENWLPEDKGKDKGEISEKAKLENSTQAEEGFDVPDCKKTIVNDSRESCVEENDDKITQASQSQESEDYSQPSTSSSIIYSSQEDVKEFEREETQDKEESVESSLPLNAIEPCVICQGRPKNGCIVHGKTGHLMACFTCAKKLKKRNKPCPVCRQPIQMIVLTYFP

Row | Structure (SMILES) | inhibitory effect on MDM2 compared with positive control compound HDM201 (MDM2) | inhibitory effect on human osteosarcoma cell line SJSA-1 compared with positive control compound HDM201 [1] | IC50 (MDM2) [nM] | IC50 [1] [nM]
1 | COc1cc(C(F)(F)F)ncc1-c1nc2c(n1C(C)C)C1(C(=O)Nc3cc(Cl)ccc31)N(c1cc(Cl)ccc1C)C2=O (stereo not drawn) [Example 138, 6-chloro-5′-(5-chloro-2-methylphenyl)-3′-isopropyl-2′-(4-methoxy-6-(trifluoromethyl)pyridin-3-yl)-3′H-spiro[dihydroindole-3,4′-pyrrolo[3,4-d]imidazole]-2,6′(5′H)-dione] | better | better | – | –
2 | CCOc1cc(OC)c(-c2nc3c(n2C(C)C)C2(C(=O)Nc4cc(Cl)ccc42)N(c2cc(F)cc(Cl)c2)C3=O)cn1 (stereo not drawn) [Example 139, 6-chloro-5′-(3-chloro-5-fluorophenyl)-2′-(6-ethoxy-4-methoxypyridin-3-yl)-3′-isopropyl-3′H-spiro[dihydroindole-3,4′-pyrrolo[3,4-d]imidazole]-2,6′(5′H)-dione] | better | better | – | –
3 | COc1cc(C2CC2)ncc1-c1nc2c(n1C(C)C)C1(C(=O)Nc3cc(Cl)ccc31)N(c1cc(Cl)cnc1C)C2=O (stereo not drawn) [Example 143, 6-chloro-5′-(5-chloro-2-methylpyridin-3-yl)-2′-(6-cyclopropyl-4-methoxypyridin-3-yl)-3′-isopropyl-3′H-spiro[dihydroindole-3,4′-pyrrolo[3,4-d]imidazole]-2,6′(5′H)-dione] | better | better | – | –
4 | COc1cc(OCC(F)F)ncc1-c1nc2c(n1C(C)C)C1(C(=O)Nc3cc(Cl)ccc31)N(c1cc(Cl)ccc1C)C2=O (stereo not drawn) [Example 153, 6-chloro-5′-(5-chloro-2-methylphenyl)-2′-(6-(2,2-difluoroethoxy)-4-methoxypyridin-3-yl)-3′-isopropyl-3′H-spiro[dihydroindole-3,4′-pyrrolo[3,4-d]imidazole]-2,6′(5′H)-dione] | better | better | – | –
5 | COc1cc(C)ncc1-c1nc2c(n1C(C)C)C1(C(=O)Nc3cc(Cl)ccc31)N(c1cc(Cl)ccc1C)C2=O (stereo not drawn) [Example 154, 6-chloro-5′-(5-chloro-2-methylphenyl)-3′-isopropyl-2′-(4-methoxy-6-methylpyridin-3-yl)-3′H-spiro[dihydroindole-3,4′-pyrrolo[3,4-d]imidazole]-2,6′(5′H)-dione] | better | better | – | –
6 | COc1cc(N(C)C)ncc1-c1nc2c(n1C(C)C)C1(C(=O)Nc3cc(Cl)ccc31)N(c1cc(Cl)cnc1C)C2=O (stereo not drawn) [Example 155, 6-chloro-5′-(5-chloro-2-methylpyridin-3-yl)-2′-(6-(dimethylamino)-4-methoxypyridin-3-yl)-3′-isopropyl-3′H-spiro[dihydroindole-3,4′-pyrrolo[3,4-d]imidazole]-2,6′(5′H)-dione] | better | better | – | –
7 | COc1cc(C(C)C)ncc1-c1nc2c(n1C(C)C)C1(C(=O)Nc3cc(Cl)ccc31)N(c1cc(Cl)ccc1C)C2=O (stereo not drawn) [Example 164, 6-chloro-5′-(5-chloro-2-methylphenyl)-3′-isopropyl-2′-(6-isopropyl-4-methoxypyridin-3-yl)-3′H-spiro[dihydroindole-3,4′-pyrrolo[3,4-d]imidazole]-2,6′(5′H)-dione] | better | better | – | –
8 | COc1cc(C(C)C)ncc1-c1nc2c(n1C(C)C)C1(C(=O)Nc3cc(Cl)ccc31)N(c1cc(Cl)cnc1C)C2=O (stereo not drawn) [Example 166, 6-chloro-5′-(5-chloro-2-methylpyridin-3-yl)-3′-isopropyl-2′-(6-isopropyl-4-methoxypyridin-3-yl)-3′H-spiro[dihydroindole-3,4′-pyrrolo[3,4-d]imidazole]-2,6′(5′H)-dione] | better | better | – | –
9 | COc1cc(C2CC2)ncc1-c1nc2c(n1C(C)C)C1(C(=O)Nc3cc(Cl)ccc31)N(c1cc(F)cc(Cl)c1)C2=O (stereo not drawn) [Example 176, 6-chloro-5′-(3-chloro-5-fluorophenyl)-2′-(6-cyclopropyl-4-methoxypyridin-3-yl)-3′-isopropyl-3′H-spiro[dihydroindole-3,4′-pyrrolo[3,4-d]imidazole]-2,6′(5′H)-dione] | better | better | – | –
10 | COc1nc(C#N)ncc1-c1nc2c(n1C(C)C)C1(C(=O)Nc3cc(Cl)ccc31)N(c1cc(Cl)ccc1C)C2=O (stereo not drawn) [Example 179] | – | – | 4.27 | 52.7
11 | COc1ncc(-c2nc3c(n2C(C)C)[C@]2(C(=O)Nc4cc(Cl)ccc42)N(c2cccc(Cl)c2)C3=O)c(OC)n1 [Example R-1, (R)-6-chloro-5′-(3-chlorophenyl)-2′-(2,4-dimethoxypyrimidin-5-yl)-3′-isopropyl-3′H-spiro[dihydroindole-3,4′-pyrrolo[3,4-d]imidazole]-2,6′(5′H)-dione] | – | – | 618 | 16700
12 | COc1ncc(-c2nc3c(n2C(C)C)[C@]2(C(=O)Nc4cc(Cl)ccc42)N(c2cc(Cl)ccc2C)C3=O)c(OC)n1 [Example R-2, (R)-6-chloro-5′-(5-chloro-2-methylphenyl)-2′-(2,4-dimethoxypyrimidin-5-yl)-3′-isopropyl-3′H-spiro[dihydroindole-3,4′-pyrrolo[3,4-d]imidazole]-2,6′(5′H)-dione] | – | – | 117 | 2770
13 | COc1ncc(-c2nc3c(n2C(C)C)[C@]2(C(=O)Nc4cc(Cl)ccc42)N(c2ccc(F)c(Cl)c2)C3=O)c(OC)n1 [Example R-3, (R)-6-chloro-5′-(3-chloro-4-fluorophenyl)-2′-(2,4-dimethoxypyrimidin-5-yl)-3′-isopropyl-3′H-spiro[dihydroindole-3,4′-pyrrolo[3,4-d]imidazole]-2,6′(5′H)-dione] | – | – | 1190 | 16300
14 | COc1cc(F)ccc1-c1nc2c(n1C(C)C)[C@]1(C(=O)Nc3cc(Cl)ccc31)N(c1cc(Cl)ccc1C)C2=O [Example R-4, (R)-6-chloro-5′-(5-chloro-2-methylphenyl)-2′-(4-fluoro-2-methoxyphenyl)-3′-isopropyl-3′H-spiro[dihydroindole-3,4′-pyrrolo[3,4-d]imidazole]-2,6′(5′H)-dione] | – | – | 132 | 2190
15 | COc1ccccc1-c1nc2c(n1C(C)C)[C@]1(C(=O)Nc3cc(Cl)ccc31)N(c1cc(Cl)ccc1C)C2=O [Example R-5, (R)-6-chloro-5′-(5-chloro-2-methylphenyl)-3′-isopropyl-2′-(2-methoxyphenyl)-3′H-spiro[dihydroindole-3,4′-pyrrolo[3,4-d]imidazole]-2,6′(5′H)-dione] | – | – | 109 | 1600
16 | COc1ccc(-c2nc3c(n2C(C)C)[C@]2(C(=O)Nc4cc(Cl)ccc42)N(c2cc(Cl)ccc2C)C3=O)c(OC)n1 [Example R-8, (R)-6-chloro-5′-(5-chloro-2-methylphenyl)-2′-(2,6-dimethoxypyridin-3-yl)-3′-isopropyl-3′H-spiro[dihydroindole-3,4′-pyrrolo[3,4-d]imidazole]-2,6′(5′H)-dione] | – | – | 329 | 2290
17 | COc1ccc(-c2nc3c(n2C(C)C)[C@]2(C(=O)Nc4cc(Cl)ccc42)N(c2cc(Cl)ccc2C)C3=O)c(OC)c1 [Example R-9, (R)-6-chloro-5′-(5-chloro-2-methylphenyl)-2′-(2,4-dimethoxyphenyl)-3′-isopropyl-3′H-spiro[dihydroindole-3,4′-pyrrolo[3,4-d]imidazole]-2,6′(5′H)-dione] | – | – | 332 | 2820
18 | COc1cnccc1-c1nc2c(n1C(C)C)[C@]1(C(=O)Nc3cc(Cl)ccc31)N(c1cc(Cl)ccc1C)C2=O [Example R-10, (R)-6-chloro-5′-(5-chloro-2-methylphenyl)-3′-isopropyl-2′-(3-methoxypyridin-4-yl)-3′H-spiro[dihydroindole-3,4′-pyrrolo[3,4-d]imidazole]-2,6′(5′H)-dione] | – | – | 117 | 2170
19 | COc1cc(OC)c(-c2nc3c(n2C(C)C)[C@]2(C(=O)Nc4cc(Cl)ccc42)N(c2cc(Cl)ccc2C)C3=O)cn1 [Example R-11, (R)-6-chloro-5′-(5-chloro-2-methylphenyl)-2′-(4,6-dimethoxypyridin-3-yl)-3′-isopropyl-3′H-spiro[dihydroindole-3,4′-pyrrolo[3,4-d]imidazole]-2,6′(5′H)-dione] | – | – | 257 | 1510
20 | COc1cc(C#N)ccc1-c1nc2c(n1C(C)C)[C@]1(C(=O)Nc3cc(Cl)ccc31)N(c1cc(Cl)ccc1C)C2=O [Example R-12, (R)-4-(6-chloro-5′-(5-chloro-2-methylphenyl)-3′-isopropyl-2,6′-dioxo-5′,6′-dihydro-3′H-spiro[dihydroindole-3,4′-pyrrolo[3,4-d]imidazole]-2′-yl)-3-methoxybenzonitrile] | – | – | 368 | 2440
21 | COc1ccc(C#N)cc1-c1nc2c(n1C(C)C)[C@]1(C(=O)Nc3cc(Cl)ccc31)N(c1cc(Cl)ccc1C)C2=O [Example R-13, (R)-3-(6-chloro-5′-(5-chloro-2-methylphenyl)-3′-isopropyl-2,6′-dioxo-5′,6′-dihydro-3′H-spiro[dihydroindole-3,4′-pyrrolo[3,4-d]imidazole]-2′-yl)-4-methoxybenzonitrile] | – | – | 121 | 1120
